# In patent US9493448B2, “Cycloalkane derivatives” (Daiichi Sankyo Company, Limited, priority 2012, dated 2016):
# Structures can show the parent of a compound that is named as a salt.
# Target: hNav 1.7 (Homo sapiens (Human), UniProt Q15858)
# Test: Electrophysiological evaluation, automated patch clamp IonWorks Quattro (Population Patch Clamp mode)
# Format: cell-based
# Details: HEK293A cells stably expressing hNav 1.7/β1/β2; response to second depolarization pulse, pre-pulse potential set to V1/2; read-out: hNav1.7 IC50
# Sequence of hNav 1.7 (Q15858 whole entry): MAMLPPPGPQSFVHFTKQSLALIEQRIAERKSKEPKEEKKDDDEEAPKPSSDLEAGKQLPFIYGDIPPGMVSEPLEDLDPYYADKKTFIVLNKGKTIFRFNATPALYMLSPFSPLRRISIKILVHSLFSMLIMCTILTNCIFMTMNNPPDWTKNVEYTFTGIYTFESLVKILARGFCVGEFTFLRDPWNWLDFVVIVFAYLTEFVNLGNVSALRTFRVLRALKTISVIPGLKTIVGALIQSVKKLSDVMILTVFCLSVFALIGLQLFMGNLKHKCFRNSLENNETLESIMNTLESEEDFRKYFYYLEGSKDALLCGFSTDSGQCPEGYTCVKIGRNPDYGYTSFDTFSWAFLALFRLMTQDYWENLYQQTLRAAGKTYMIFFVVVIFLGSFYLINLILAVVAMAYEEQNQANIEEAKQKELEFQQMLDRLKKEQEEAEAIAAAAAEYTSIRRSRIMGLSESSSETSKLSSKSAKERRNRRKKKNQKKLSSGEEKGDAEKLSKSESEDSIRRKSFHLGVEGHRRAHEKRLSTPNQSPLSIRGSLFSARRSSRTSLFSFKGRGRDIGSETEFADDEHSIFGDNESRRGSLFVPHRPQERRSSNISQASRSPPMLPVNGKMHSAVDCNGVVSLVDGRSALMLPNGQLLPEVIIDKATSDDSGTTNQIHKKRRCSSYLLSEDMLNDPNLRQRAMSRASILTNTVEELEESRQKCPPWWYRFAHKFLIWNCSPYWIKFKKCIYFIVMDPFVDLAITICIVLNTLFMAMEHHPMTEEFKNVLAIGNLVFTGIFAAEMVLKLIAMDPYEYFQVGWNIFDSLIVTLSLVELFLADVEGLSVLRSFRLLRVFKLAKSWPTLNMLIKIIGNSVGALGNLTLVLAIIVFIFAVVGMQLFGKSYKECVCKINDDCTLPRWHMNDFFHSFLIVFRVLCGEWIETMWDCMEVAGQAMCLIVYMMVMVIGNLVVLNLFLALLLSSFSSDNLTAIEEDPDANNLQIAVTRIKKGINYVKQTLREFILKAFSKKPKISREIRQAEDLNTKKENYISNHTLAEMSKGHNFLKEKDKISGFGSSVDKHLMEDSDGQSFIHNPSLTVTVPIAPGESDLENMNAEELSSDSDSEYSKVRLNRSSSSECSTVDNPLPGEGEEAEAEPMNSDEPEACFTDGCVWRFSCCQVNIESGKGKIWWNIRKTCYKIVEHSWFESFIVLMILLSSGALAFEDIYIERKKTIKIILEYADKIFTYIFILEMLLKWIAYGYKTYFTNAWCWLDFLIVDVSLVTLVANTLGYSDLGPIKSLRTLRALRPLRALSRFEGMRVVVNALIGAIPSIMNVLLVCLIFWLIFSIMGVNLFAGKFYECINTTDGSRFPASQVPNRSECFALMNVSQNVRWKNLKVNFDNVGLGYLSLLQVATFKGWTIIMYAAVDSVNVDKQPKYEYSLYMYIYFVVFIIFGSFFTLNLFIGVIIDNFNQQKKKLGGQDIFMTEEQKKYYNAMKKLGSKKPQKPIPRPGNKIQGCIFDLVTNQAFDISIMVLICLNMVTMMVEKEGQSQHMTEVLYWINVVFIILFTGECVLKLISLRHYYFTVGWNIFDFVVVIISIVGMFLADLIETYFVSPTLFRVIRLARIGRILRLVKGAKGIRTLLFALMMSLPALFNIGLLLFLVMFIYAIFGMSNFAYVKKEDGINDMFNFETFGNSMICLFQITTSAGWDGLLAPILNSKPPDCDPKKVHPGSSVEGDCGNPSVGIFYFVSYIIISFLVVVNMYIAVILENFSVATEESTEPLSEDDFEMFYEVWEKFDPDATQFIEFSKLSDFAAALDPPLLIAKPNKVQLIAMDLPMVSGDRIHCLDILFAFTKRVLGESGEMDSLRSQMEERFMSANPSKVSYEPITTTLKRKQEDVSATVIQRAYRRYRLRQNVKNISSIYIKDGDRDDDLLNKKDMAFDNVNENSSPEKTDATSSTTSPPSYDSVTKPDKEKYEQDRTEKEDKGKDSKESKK
# Sequence of hNav 1.7 (Q07699 19-218 partner): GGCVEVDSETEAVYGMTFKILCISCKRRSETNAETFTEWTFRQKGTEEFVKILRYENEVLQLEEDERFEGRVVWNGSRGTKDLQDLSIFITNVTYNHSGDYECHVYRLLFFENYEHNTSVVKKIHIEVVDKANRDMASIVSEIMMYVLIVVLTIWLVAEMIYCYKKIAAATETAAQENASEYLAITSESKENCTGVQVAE
# Sequence of hNav 1.7 (O60939 30-215 partner): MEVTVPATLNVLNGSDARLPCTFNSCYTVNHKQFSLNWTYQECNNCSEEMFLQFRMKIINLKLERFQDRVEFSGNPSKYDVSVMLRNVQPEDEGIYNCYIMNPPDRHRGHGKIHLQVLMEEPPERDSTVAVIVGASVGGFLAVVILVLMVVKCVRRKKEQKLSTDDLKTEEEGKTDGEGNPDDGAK
row,SMILES,IC50 [nM]
1,"Cn1nccc1[C@@H]1C[C@@H](O)CC[C@H]1Oc1cc(F)c(S(=O)(=O)Nc2ccncn2)cc1Cl [Example 164, 5-Chloro-2-fluoro-4-{[(1R,2S,4S)-4-hydroxy-2-(1-methyl-1H-pyrazol-5-yl)cyclohexyl]oxy}-N-(pyrimidin-4-yl)benzenesulfonamide]",> 10000
2,"Cc1cc(S(=O)(=O)Nc2ccncn2)c(F)cc1O[C@@H]1CCCC[C@H]1c1cn[nH]c1 [Example 170, 2-Fluoro-5-methyl-4-{[(1R,2S)-2-(1H-pyrazol-4-yl)cyclohexyl]oxy}-N-(pyrimidin-4-yl)benzenesulfonamide]",> 10000
3,"Cc1ncccc1[C@H]1CCCC[C@@H]1Oc1cc(F)c(S(=O)(=O)Nc2ccncn2)cc1F (relative stereo) [Example 70, 2,5-Difluoro-4-{[(1S*,2R*)-2-(2-methylpyridin-3-yl)cyclohexyl]oxy}-N-(pyrimidin-4-yl)benzenesulfonamide]",330
4,"Cn1nccc1[C@H]1CCC[C@@H]1Oc1ccc(S(=O)(=O)Nc2ccnc(F)n2)cc1F (relative stereo) [Example 18, 3-Fluoro-N-(2-fluoropyrimidin-4-yl)-4-{[(1S*,2R*)-2-(1-methyl-1H-pyrazol-5-yl)cyclopentyl]oxy}benzenesulfonamide]",170
5,"O=S(=O)(Nc1ccncn1)c1cc(Cl)c(O[C@H]2CC(F)(F)CC[C@@H]2c2ccn[nH]2)cc1F (relative stereo) [Example 156, 5-Chloro-4-{[(1S*,2R*)-5,5-difluoro-2-(1H-pyrazol-5-yl)cyclohexyl]oxy}-2-fluoro-N-(pyrimidin-4-yl)benzenesulfonamide]",41
6,"O=S(=O)(Nc1ccncn1)c1cc(F)c(O[C@H]2CCCC[C@@H]2c2ccnnc2)cc1F (relative stereo) [Example 53, 2,5-Difluoro-4-{[(1S*,2R*)-2-(pyridazin-4-yl)cyclohexyl]oxy}-N-(pyrimidin-4-yl)benzenesulfonamide]",330
7,"Cn1nccc1[C@H]1C[C@H](OCc2ccccc2)CC[C@@H]1Oc1cc(F)c(S(=O)(=O)Nc2ccncn2)cc1F (relative stereo) [Example 112, 4-{[(1S*,2R*,4R*)-4-(Benzyloxy)-2-(1-methyl-1H-pyrazol-5-yl)cyclohexyl]oxy}-2,5-difluoro-N-(pyrimidin-4-yl)benzenesulfonamide]",310
8,"Cn1nccc1[C@H]1C[C@@H](F)C[C@@H]1Oc1cc(F)c(S(=O)(=O)Nc2ccncn2)cc1F (relative stereo) [Example 106, 2,5-Difluoro-4-{[(1S*,2R*,4R*)-4-fluoro-2-(1-methyl-1H-pyrazol-5-yl)cyclopentyl]oxy}-N-(pyrimidin-4-yl)benzenesulfonamide]",270
9,"Cc1cc(S(=O)(=O)Nc2ccncn2)c(F)cc1O[C@H]1CCCC[C@@H]1c1cn[nH]c1 [Example 172, 2-Fluoro-5-methyl-4-{[(1S,2R)-2-(1H-pyrazol-4-yl)cyclohexyl]oxy}-N-(pyrimidin-4-yl)benzenesulfonamide]",34
10,"O=S(=O)(Nc1ncns1)c1cc(F)c(O[C@H]2CCC[C@@H]2c2ccccc2)cc1F (relative stereo) [Example 6, 2,5-Difluoro-4-{[(1S*,2R*)-2-phenylcyclopentyl]oxy}-N-(1,2,4-thiadiazol-5-yl)benzenesulfonamide]",610
11,"O=S(=O)(Nc1ccncn1)c1cc(Cl)c(O[C@@H]2CCCC[C@H]2c2ccn[nH]2)cc1F [Example 159, 5-Chloro-2-fluoro-4-{[(1R,2S)-2-(1H-pyrazol-5-yl)cyclohexyl]oxy}-N-(pyrimidin-4-yl)benzenesulfonamide]",9800
12,"CCc1cc(S(=O)(=O)Nc2ccncn2)c(F)cc1O[C@H]1CCC[C@@H]1c1ccnn1C (relative stereo) [Example 61, 5-Ethyl-2-fluoro-4-{[(1S*,2R*)-2-(1-methyl-1H-pyrazol-5-yl)cyclopentyl]oxy}-N-(pyrimidin-4-yl)benzenesulfonamide]",2.6
13,"Cn1nccc1[C@H]1CCCC[C@@H]1Oc1cc(F)c(S(=O)(=O)Nc2ccnc(=O)[nH]2)cc1Cl (relative stereo) [Example 153, 5-Chloro-2-fluoro-4-{[(1S*,2R*)-2-(1-methyl-1H-pyrazol-5-yl)cyclohexyl]oxy}-N-(2-oxo-2,3-dihydropyrimidin-4-yl)benzenesulfonamide]",> 100000
14,"Cn1nccc1[C@H]1C[C@@H](O)CC[C@@H]1Oc1cc(F)c(S(=O)(=O)Nc2ccncn2)cc1Cl (relative stereo) [Example 162, 5-Chloro-2-fluoro-4-{[(1S*,2R*,4S*)-4-hydroxy-2-(1-methyl-1H-pyrazol-5-yl)cyclohexyl]oxy}-N-(pyrimidin-4-yl)benzenesulfonamide]",820
15,"Cn1nccc1[C@H]1CCCC[C@@H]1Oc1cc(F)c(S(=O)(=O)Nc2cscn2)cc1Cl (relative stereo) [Example 10, 5-Chloro-2-fluoro-4-{[(1S*,2R*)-2-(1-methyl-1H-pyrazol-5-yl)cyclohexyl]oxy}-N-(1,3-thiazol-4-yl)benzenesulfonamide Na salt]",30
16,"O=S(=O)(Nc1ncns1)c1cc(F)c(O[C@H]2CCCC[C@@H]2c2ccccc2)cc1F [Example 2, 2,5-Difluoro-4-{[(1S,2R)-2-phenylcyclohexyl]oxy}-N-(1,2,4-thiadiazol-5-yl)benzenesulfonamide]",20

row,SMILES,IC50 [nM]
1,"O=S(=O)(Nc1ccncn1)c1cc(Cl)c(O[C@@H]2CCC[C@H]2c2ccn[nH]2)cc1F [Example 151, 5-Chloro-2-fluoro-4-{[(1R,2S)-2-(1H-pyrazol-5-yl)cyclopentyl]oxy}-N-(pyrimidin-4-yl)benzenesulfonamide]",33000
2,"CO[C@H]1C[C@H](Oc2cc(F)c(S(=O)(=O)Nc3ccncn3)cc2F)[C@@H](c2ccnn2C)C1 (relative stereo) [Example 121, 2,5-Difluoro-4-{[(1S*,2R*,4R*)-4-methoxy-2-(1-methyl-1H-pyrazol-5-yl)cyclopentyl]oxy}-N-(pyrimidin-4-yl)benzenesulfonamide]",930
3,"Cn1nccc1[C@H]1CCC[C@@H]1Oc1cc(F)c(S(=O)(=O)Nc2ccnc(F)n2)cc1F (relative stereo) [Example 24, 2,5-Difluoro-N-(2-fluoropyrimidin-4-yl)-4-{[(1S*,2R*)-2-(1-methyl-1H-pyrazol-5-yl)cyclopentyl]oxy}benzenesulfonamide]",23
4,"Cn1nccc1[C@H]1CCC[C@@H]1Oc1ccc(S(=O)(=O)Nc2cc(F)ncn2)cc1F (relative stereo) [Example 17, 3-Fluoro-N-(6-fluoropyrimidin-4-yl)-4-{[(1S*,2R*)-2-(1-methyl-1H-pyrazol-5-yl)cyclopentyl]oxy}benzenesulfonamide]",510
5,"Cn1nccc1[C@H]1CCCCC[C@@H]1Oc1cc(F)c(S(=O)(=O)Nc2ncns2)cc1F (relative stereo) [Example 9, 2,5-Difluoro-4-{[(1S*,2R*)-2-(1-methyl-1H-pyrazol-5-yl)cycloheptyl]oxy}-N-(1,2,4-thiadiazol-5-yl)benzenesulfonamide]",14
6,"O=S(=O)(Nc1ccncn1)c1cc(F)c(O[C@H]2CCCC[C@@H]2c2cccnc2)cc1F (relative stereo) [Example 39, 2,5-Difluoro-4-{[(1S*,2R*)-2-(pyridin-3-yl)cyclohexyl]oxy}-N-(pyrimidin-4-yl)benzenesulfonamide]",1000
7,"Nc1n[nH]cc1[C@H]1CCCC[C@@H]1Oc1cc(F)c(S(=O)(=O)Nc2ccncn2)cc1F (relative stereo) [Example 34, 4-{[(1S*,2R*)-2-(3-Amino-1H-pyrazol-4-yl)cyclohexyl]oxy}-2,5-difluoro-N-(pyrimidin-4-yl)benzenesulfonamide]",250
8,"Cn1nccc1[C@@H]1[C@@H](Oc2cc(F)c(S(=O)(=O)Nc3ccncn3)cc2F)CCC1(C)C (relative stereo) [Example 99, 4-{[(1S*,2R*)-3,3-Dimethyl-2-(1-methyl-1H-pyrazol-5-yl)cyclopentyl]oxy}-2,5-difluoro-N-(pyrimidin-4-yl)benzenesulfonamide]",410
9,"O=S(=O)(Nc1ccncn1)c1cc(F)c(O[C@H]2CCCC[C@@H]2c2ccn[nH]2)cc1F (relative stereo) [Example 22, 2,5-Difluoro-4-{[(1S*,2R*)-2-(1H-pyrazol-5-yl)cyclohexyl]oxy}-N-(pyrimidin-4-yl)benzenesulfonamide]",520
10,"Cc1cc(S(=O)(=O)Nc2ccncn2)c(F)cc1O[C@@H]1CC(F)(F)CC[C@H]1c1cn[nH]c1 [Example 144, 4-{[(1R,2S)-5,5-Difluoro-2-(1H-pyrazol-4-yl)cyclohexyl]oxy}-2-fluoro-5-methyl-N-(pyrimidin-4-yl)benzenesulfonamide]",3400
11,"O=S(=O)(Nc1ncns1)c1cc(F)c(O[C@H]2CCCC[C@@H]2c2ccccc2)cc1F (single isomer, unassigned) [Example 1, 2,5-Difluoro-4-{[(1S*,2R*)-2-phenylcyclohexyl]oxy}-N-(1,2,4-thiadiazol-5-yl)benzenesulfonamide]",120
12,"Cn1cncc1[C@H]1CCCC[C@@H]1Oc1cc(F)c(S(=O)(=O)Nc2ccncn2)cc1F (relative stereo) [Example 49, 2,5-Difluoro-4-{[(1S*,2R*)-2-(1-methyl-1H-imidazol-5-yl)cyclohexyl]oxy}-N-(pyrimidin-4-yl)benzenesulfonamide]",660
13,"Cc1cc(S(=O)(=O)Nc2ccncn2)c(F)cc1O[C@H]1CC(F)(F)CC[C@@H]1c1ccn[nH]1 (relative stereo) [Example 155, 4-{[(1S*,2R*)-5,5-Difluoro-2-(1H-pyrazol-5-yl)cyclohexyl]oxy}-2-fluoro-5-methyl-N-(pyrimidin-4-yl)benzenesulfonamide]",28
14,"Cn1nccc1[C@@H]1[C@@H](Oc2cc(F)c(S(=O)(=O)Nc3ccncn3)cc2F)CCC[C@H]1OCc1ccccc1 (relative stereo) [Example 100, 4-{[(1S*,2S*,3R*)-3-(Benzyloxy)-2-(1-methyl-1H-pyrazol-5-yl)cyclohexyl]oxy}-2,5-difluoro-N-(pyrimidin-4-yl)benzenesulfonamide]",380
15,"Cn1nccc1[C@H]1CCC[C@@H]1Oc1ccc(S(=O)(=O)Nc2ccncn2)cc1C(F)(F)F (relative stereo) [Example 21, 4-{[(1S*,2R*)-2-(1-Methyl-1H-pyrazol-5-yl)cyclopentyl]oxy}-N-(pyrimidin-4-yl)-3-(trifluoromethyl)benzenesulfonamide]",250
